Source: BindingDB's records for doi:10.7270/Q24T6GTZ (Burnham Center For Chemical Genomics, 2010)

Target: Kappa-type opioid receptor (Homo sapiens, UniProt P41145)
Test: kappa opioid receptor activation potency – imaging, image-based, SAR follow-up (AID 2359)

Kappa-type opioid receptor, sequence (P41145 whole entry): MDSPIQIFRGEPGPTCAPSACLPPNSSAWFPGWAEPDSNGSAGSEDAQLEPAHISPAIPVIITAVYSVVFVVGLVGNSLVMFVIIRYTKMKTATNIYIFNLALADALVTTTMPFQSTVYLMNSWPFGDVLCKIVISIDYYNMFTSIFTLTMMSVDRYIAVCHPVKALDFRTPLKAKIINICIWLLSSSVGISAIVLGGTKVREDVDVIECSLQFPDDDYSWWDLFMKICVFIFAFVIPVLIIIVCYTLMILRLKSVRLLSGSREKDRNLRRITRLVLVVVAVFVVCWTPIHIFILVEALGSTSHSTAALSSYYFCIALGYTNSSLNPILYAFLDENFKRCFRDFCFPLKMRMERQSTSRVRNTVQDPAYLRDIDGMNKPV

Oc1ccc(CN=Nc2ccnc3cc(Cl)ccc23)cc1O [(4Z)-4-[[2-(7-chloroquinolin-4-yl)hydrazinyl]methylidene]-2-hydroxycyclohexa-2,5-dien-1-one]
EC50: > 32 µM

CCC(N=Nc1ccnc2cc(Cl)ccc12)c1ccc(O)cc1 (configuration not stated) [4-[1-[2-(7-chloroquinolin-4-yl)hydrazinyl]propylidene]cyclohexa-2,5-dien-1-one]
EC50: > 32 µM
